Experiments:
[1] = system: recent-onset symptomatic AF; assay: Clinical study: cardioversion of recent-onset atrial fibrillation to sinus rhythm with orally inhaled flecainide; assay type: in vivo, human; settings: 120 mg flecainide acetate (eTLD) by oral inhalation; for conversion rate (AF to sinus rhythm): cardioversion success at 90 minutes post-dose
Description: A flecainide acetate oral inhalation solution for acute cardioversion of recent-onset symptomatic AF was administered to 80 patients to determine if height, weight, and body mass index (BMI) are predictors of successful cardioversion of AF to sinus rhythm (SR) with the inhalation solution.
The flecainide formulation used in this study is described in TABLE 1.
In this study, for inhalation delivery of flecainide, an estimated total lung dose (eTLD) of 120 mg were calculated to account for losses of flecainide in the inhalation device and losses of flecainide in subjects' mouth and throat. An 120 mg eTLD was thereby used to denote the dose that actually reached the lungs of the subjects. By design, in all nebulizers there can be a residual volume or mass of drug solution that stays in the nebulizer, and there can also be a percentage of the aerosol caught by subject's throat and mouth. For instance, in this study, it was estimated that 30% of the aerosol was lost in subject's throat and mouth. Therefore the eTLD would be: eTLD=(100-30) %*amount of aerosolized drug that left nebulizer=70%*(amount of drug placed in nebulizer−amount of drug staying in nebulizer).
The AeroEclipse®II BAN inhaler was used for nebulization and inhalation of the exemplary flecainide formulations. It is available as an approved device in several countries across the world including European countries, USA, and Canada. The inhaler is a hand-held, breath actuated, jet nebulizer which operates through a source of compressed air available as medical air in the hospital ER. The AeroEclipse®BAN delivers a high respirable dose and an optimal particle size to reach the deeper lung regions to enable faster drug absorption. Flecainide acetate inhalation solution was transferred from the vial into the reservoir of the AeroEclipse®II BAN at a volume corresponding to the required dose to the lung. To administer an estimated total lung dose of […] flecainide acetate, the nebulizer was filled with 4.2 mL of Formulation A described in TABLE 1. The total volume filled in each dosing cup was based on the assumption of a 70% (v/v) lung deposition, a 12.5% (v/v) loss due to fugitive aerosol based on in-vitro experiments, and device retention of approximately 1.5 mL of the solution.
Participants in the study were administered the study medications according to the following guidelines: • Subject self-administers inhalation using the AeroEclipse® II BAN • Subject is seated upright in a comfortable chair or adjustable bed with table that has adjustable height in front (e.g. overbed table on casters) where the subject can rest his/her arms (e.g. overbed table on casters) from approximately 30 minutes prior to the start of inhalation up to at least 15 minutes after the last inhalation is completed. […]

[2] = Flecainide peak plasma concentration (Cmax) versus BMI classification in atrial fibrillation patients; assay type: in vivo, human; settings: atrial fibrillation patients (n=81); 120 mg flecainide acetate via oral inhalation; both conversion and no conversion cohorts
Description: Logistic regression was performed to identify predictors of cardioversion success at 90 minutes post-dose, and potential interactions were examined by linear regression.
FIG. 6 is a chart depicting median Cmax versus BMI classification (normal (BMI<25), overweight (BMI≥25 and <30), obese/severe obese (BMI≥30)) in atrial fibrillation patients (n=81) administered 120 mg flecainide acetate via oral inhalation.

[3] = Solubility of flecainide acetate in water solution; assay type: physicochemical

- median flecainide peak plasma concentration (Cmax) versus BMI category [2]: positive correlation
- solubility [3]: ~60 mg/mL
SMILES: O=C(NCC1CCCCN1)c1cc(OCC(F)(F)F)ccc1OCC(F)(F)F (stereo not drawn) [flecainide acetate]
- conversion rate (AF to sinus rhythm) ([1]; obese patients (BMI≥30 and <35 kg/m^2)): 43%
- conversion rate (AF to sinus rhythm) ([1]; overweight patients (BMI≥25 and <30 kg/m^2)): 47%
- conversion rate (AF to sinus rhythm) ([1]; patients with normal BMI (<25 kg/m^2)): 53%
- AF successfully converted to sinus rhythm ([1]; severely obese patients, 90 minutes post-dose): none

From patent US20250332152A1, “INHALED THERAPY FOR CARDIAC ARRHYTHMIA” (InCarda Therapeutics, Inc., priority 2021, published 2025)
